Our source for the IC50 values is patent publication US8183239B2, “Substituted piperazines and piperidines as modulators of the neuropeptide Y2 receptor” (Janssen Pharmaceutica NV, priority 2005, dated 2012).

Bounds are passed on as bounds.

As a reminder, the IC50 is the midpoint of a concentration-inhibition curve.

The target in this experiment is T1, Y2 receptors (Homo sapiens, UniProt P49146).
T1 construct: endogenous in cells; host or cells: KAN-Ts cells (membranes)
T1 sequence (P49146 1-381): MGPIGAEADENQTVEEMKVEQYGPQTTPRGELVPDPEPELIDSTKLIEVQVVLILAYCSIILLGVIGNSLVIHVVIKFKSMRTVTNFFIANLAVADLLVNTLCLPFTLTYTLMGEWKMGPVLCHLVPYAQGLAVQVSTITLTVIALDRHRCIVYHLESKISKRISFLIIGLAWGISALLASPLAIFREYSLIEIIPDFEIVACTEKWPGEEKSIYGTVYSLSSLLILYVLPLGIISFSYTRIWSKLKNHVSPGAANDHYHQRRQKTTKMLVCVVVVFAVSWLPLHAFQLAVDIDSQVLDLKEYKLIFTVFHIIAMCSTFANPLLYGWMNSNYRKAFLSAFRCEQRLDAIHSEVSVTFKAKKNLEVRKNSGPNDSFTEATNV
The experiment in a line: Radioligand binding assay ([125I]PYY, KAN-Ts cell membranes). Particulars: Table 2, [125I]PYY 80 pM, average of results, read-out: IC50. A digest of the protocol:
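IC50 values are means of three to eight experiments run in duplicate, fitted sigmoidally against specific binding (defined by […]). Competition used 80 pM [^125I]PYY for 1 h at room temperature on KAN-Ts membranes carrying native Y2, with filtration and scintillation counting.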

Take `CCC(CC)C(=O)Nc1ccc(N2CCN(C(C(=O)N(CC)CC)c3ccc(F)cc3F)CC2)c(F)c1` (stereo not drawn) [Example 197, N-(4-{4-[Diethylcarbamoyl-(2,4-difluoro-phenyl)-methyl]-piperazin-1-yl}-3-fluoro-phenyl)-2-ethyl-butyramide]: the concentration for half-maximal inhibition (IC50) is 0.15 µM.
The result for `CCC(CC)C(=O)Nc1ccc(N2CCN(C(C(=O)N3CCC(F)(F)C3)c3ccc(F)cc3)CC2)c(F)c1` (stereo not drawn) [Example 198, N-(4-{4-[2-(3,3-Difluoro-pyrrolidin-1-yl)-1-(4-fluoro-phenyl)-2-oxo-ethyl]-piperazin-1-yl}-3-fluoro-phenyl)-2-ethyl-butyramide] reads 0.35 µM.
With `CCC(CC)C(=O)Nc1ccc(N2CCN(C(C(=O)N3CCC(F)(F)C3)c3cccc(F)c3)CC2)c(F)c1` (stereo not drawn) [Example 199, N-(4-{4-[2-(3,3-Difluoro-pyrrolidin-1-yl)-1-(3-fluoro-phenyl)-2-oxo-ethyl]-piperazin-1-yl}-3-fluoro-phenyl)-2-ethyl-butyramide], the IC50 amounted to 0.148 µM.
`CCC(CC)C(=O)Nc1ccc(N2CCN(C(C(=O)N(CC)CC)c3cc(Br)ccc3F)CC2)c(F)c1` (stereo not drawn) [Example 200, N-(4-{4-[(5-Bromo-2-fluoro-phenyl)-diethylcarbamoyl-methyl]-piperazin-1-yl}-3-fluoro-phenyl)-2-ethyl-butyramide]: the half-maximal inhibitory concentration (IC50) is 0.015 µM.
For `CCC(CC)C(=O)Nc1ccc(N2CCN(C(C(=O)N(CC)CC)c3ccc(F)c(F)c3)CC2)c(F)c1` (stereo not drawn) [Example 201, N-(4-{4-[Diethylcarbamoyl-(3,4-difluoro-phenyl)-methyl]-piperazin-1-yl}-3-fluoro-phenyl)-2-ethyl-butyramide], the half-maximal inhibitory concentration (IC50) turned out to be 0.33 µM.
Turning to `CCN(CC)C(=O)C(c1ccccc1)N1CCN(c2ccc(NC(=O)C3CCCC3)cn2)CC1` (stereo not drawn) [Example 202, Cyclopentanecarboxylic acid {6-[4-(diethylcarbamoyl-phenyl-methyl)-piperazin-1-yl]-pyridin-3-yl}-amide], the half-maximal inhibitory concentration (IC50) was 0.9 µM.
Next, `CCC(CC)C(=O)Nc1ccc(N2CCN(C(C(=O)N(CC)CC)c3ccccc3)CC2)nc1` (stereo not drawn) [Example 203, N-{6-[4-(Diethylcarbamoyl-phenyl-methyl)-piperazin-1-yl]-pyridin-3-yl}-2-ethyl-butyramide]: 0.735 µM.
Next, `CCN(CC)C(=O)C(c1ccccc1)C1CCN(c2ccc(NC(=O)C3CCCC3)cn2)CC1` (stereo not drawn) [Example 204, Cyclopentanecarboxylic acid [4-(diethylcarbamoyl-phenyl-methyl)-3,4,5,6-tetrahydro-2H-[1,2′]bipyridinyl-5′-yl]-amide]: 0.4 µM; `CCC(CC)C(=O)Nc1ccc(N2CCC(C(C(=O)N(CC)CC)c3ccccc3)CC2)nc1` (stereo not drawn) [Example 205, N-[4-(Diethylcarbamoyl-phenyl-methyl)-3,4,5,6-tetrahydro-2H-[1,2′]bipyridinyl-5′-yl]-2-ethyl-butyramide]: 0.3 µM; `CCC(CC)C(=O)Nc1ccc(N2CCC(C(C(=O)N3CCC(F)CC3)c3ccccc3)CC2)c(F)c1` (stereo not drawn) [Example 206, 2-Ethyl-N-(3-fluoro-4-{4-[2-(4-fluoro-piperidin-1-yl)-2-oxo-1-phenyl-ethyl]-piperidin-1-yl}-phenyl)-butyramide]: 0.02 µM.
As to `CCC(CC)C(=O)Nc1ccc(N2CCC(C(C(=O)N3CC(F)(F)C3)c3ccccc3)CC2)c(F)c1` (stereo not drawn) [Example 207, N-(4-{4-[2-(3,3-Difluoro-azetidin-1-yl)-2-oxo-1-phenyl-ethyl]-piperidin-1-yl}-3-fluoro-phenyl)-2-ethyl-butyramide], the half-maximal inhibitory concentration (IC50) stood at 0.07 µM.
The result for `CCC(CC)C(=O)Nc1ccc(N2CCC(C(C(=O)N3CCC(F)(F)CC3)c3ccccc3)CC2)c(F)c1` (stereo not drawn) [Example 208, N-(4-{4-[2-(4,4-Difluoro-piperidin-1-yl)-2-oxo-1-phenyl-ethyl]-piperidin-1-yl}-3-fluoro-phenyl)-2-ethyl-butyramide] reads 0.02 µM; that for `CCC(CC)C(=O)Nc1ccc(N2CCC(C(C(=O)N3CCC3)c3ccccc3)CC2)c(F)c1` (stereo not drawn) [Example 209, N-{4-[4-(2-Azetidin-1-yl-2-oxo-1-phenyl-ethyl)-piperidin-1-yl]-3-fluoro-phenyl}-2-ethyl-butyramide], 0.1 µM; that for `CCC(CC)C(=O)Nc1ccc(N2CCC(C(C(=O)N3CCC(F)(F)C3)c3ccccc3)CC2)c(F)c1` (stereo not drawn) [Example 210, N-(4-{4-[2-(3,3-Difluoro-pyrrolidin-1-yl)-2-oxo-1-phenyl-ethyl]-piperidin-1-yl}-3-fluoro-phenyl)-2-ethyl-butyramide], 0.025 µM.
Next, `CCC(CC)C(=O)Nc1ccc(N2CCC(C(C(=O)N3CCCC3)c3ccccc3)CC2)c(F)c1` (stereo not drawn) [Example 211, 2-Ethyl-N-{3-fluoro-4-[4-(2-oxo-1-phenyl-2-pyrrolidin-1-yl-ethyl)-piperidin-1-yl]-phenyl}-butyramide]: 0.026 µM; `CCC(CC)C(=O)Nc1ccc(N2CCC(C(C(=O)NC3CC3)c3ccccc3)CC2)c(F)c1` (stereo not drawn) [Example 212, N-{4-[4-(Cyclopropylcarbamoyl-phenyl-methyl)-piperidin-1-yl]-3-fluoro-phenyl}-2-ethyl-butyramide]: 0.055 µM; `CCC(CC)C(=O)Nc1ccc(N2CCC(C(C(=O)Nc3nc(C)cs3)c3ccccc3)CC2)c(F)c1` (stereo not drawn) [Example 213, 2-Ethyl-N-(3-fluoro-4-{4-[(4-methyl-thiazol-2-ylcarbamoyl)-phenyl-methyl]-piperidin-1-yl}-phenyl)-butyramide]: 0.03 µM.
The result for `CCC(CC)C(=O)Nc1ccc(N2CCC(C(C(=O)OC)c3ccccc3)CC2)c(F)c1` (stereo not drawn) [Example 214, {1-[4-(2-Ethyl-butyrylamino)-2-fluoro-phenyl]-piperidin-4-yl}-phenyl-acetic acid methyl ester] reads 0.04 µM; that for `CCC(CC)C(=O)Nc1ccc(N2CCC(C(C(=O)N3CCCCC3)c3ccccc3)CC2)c(F)c1` (stereo not drawn) [Example 215, 2-Ethyl-N-{3-fluoro-4-[4-(2-oxo-1-phenyl-2-piperidin-1-yl-ethyl)-piperidin-1-yl]-phenyl}-butyramide], 0.1 µM.
Take `CCC(CC)C(=O)Nc1ccc(N2CCC(C(C(=O)N3CCN(C)CC3)c3ccccc3)CC2)c(F)c1` (stereo not drawn) [Example 216, 2-Ethyl-N-(3-fluoro-4-{4-[2-(4-methyl-piperazin-1-yl)-2-oxo-1-phenyl-ethyl]-piperidin-1-yl}-phenyl)-butyramide]: the IC50 was no less than 10 µM.
The result for `CCC(CC)C(=O)Nc1ccc(N2CCC(C(C(=O)N(CC)CC)c3ccccc3)CC2)c(C#N)c1` (stereo not drawn) [Example 217, N-{3-Cyano-4-[4-(diethylcarbamoyl-phenyl-methyl)-piperidin-1-yl]-phenyl}-2-ethyl-butyramide] reads 0.01 µM.
Next, `CCC(CC)C(=O)Nc1ccc(N2CCC(C(C(=O)N(CC)CC)c3ccccc3)CC2)c(Br)c1` (stereo not drawn) [Example 219, N-{3-Bromo-4-[4-(diethylcarbamoyl-phenyl-methyl)-piperidin-1-yl]-phenyl}-2-ethyl-butyramide]: 0.037 µM; `CCN(CC)C(=O)C(c1ccccc1)C1CCN(c2ccc(NC(=O)C3CCCC3)cc2F)CC1` (stereo not drawn) [Example 220, Cyclopentanecarboxylic acid {4-[4-(diethylcarbamoyl-phenyl-methyl)-piperidin-1-yl]-3-fluoro-phenyl}-amide]: 0.04 µM; `CCN(CC)C(=O)C(c1ccccc1)N1CCN(c2ccc(NC(=O)C3CCCC3)cc2C#N)CC1` (stereo not drawn) [Example 221, Cyclopentanecarboxylic acid {3-cyano-4-[4-(diethylcarbamoyl-phenyl-methyl)-piperazin-1-yl]-phenyl}-amide]: 0.048 µM.
For the compound `CCN(CC)C(=O)C(c1ccccc1)C1CCN(c2ccc(NC(=O)C3CCC3)cc2F)CC1` (stereo not drawn) [Example 222, Cyclobutanecarboxylic acid {4-[4-(diethylcarbamoyl-phenyl-methyl)-piperidin-1-yl]-3-fluoro-phenyl}-amide], the IC50 was found to be 0.063 µM.
The result for `CCC(CC)C(=O)Nc1ccc(N2CCN(C(C(=O)N(CC)CC)c3ccccc3)CC2)c(Br)c1` (stereo not drawn) [Example 223, N-{3-Bromo-4-[4-(diethylcarbamoyl-phenyl-methyl)-piperazin-1-yl]-phenyl}-2-ethyl-butyramide] reads 0.08 µM.
The result for `CCN(CC)C(=O)C(c1ccccc1)N1CCN(c2ccc(NC(=O)C3CCCC3)c(F)c2C#N)CC1` (stereo not drawn) [Example 224, Cyclopentanecarboxylic acid {3-cyano-4-[4-(diethylcarbamoyl-phenyl-methyl)-piperazin-1-yl]-2-fluoro-phenyl}-amide] reads 0.092 µM; that for `CCC(CC)C(=O)Nc1cc(F)c(N2CCN(C(C(=O)N(CC)CC)c3ccccc3)CC2)cc1F` (stereo not drawn) [Example 225, N-{4-[4-(Diethylcarbamoyl-phenyl-methyl)-piperazin-1-yl]-2,5-difluoro-phenyl}-2-ethyl-butyramide], 0.107 µM.
The result for `CCC(CC)C(=O)Nc1cc(F)c(N2CCN(C(C(=O)N(CC)CC)c3ccccc3)CC2)c(F)c1` (stereo not drawn) [Example 226, N-{4-[4-(Diethylcarbamoyl-phenyl-methyl)-piperazin-1-yl]-3,5-difluoro-phenyl}-2-ethyl-butyramide] reads 0.095 µM.
With `CCC(CC)C(=O)Nc1ccc(N2CCN(C(C(=O)N(CC)CC)c3ccccc3)CC2)c(C#N)c1F` (stereo not drawn) [Example 227, N-{3-Cyano-4-[4-(diethylcarbamoyl-phenyl-methyl)-piperazin-1-yl]-2-fluoro-phenyl}-2-ethyl-butyramide], the IC50 stood at 0.116 µM.
